Here are results for 17 compounds from patent publication US20260355196A1, “INHIBITORS AND DEGRADERS OF PIP4K PROTEIN” (Larkspur Biosciences, Inc., priority 2023, published 2026).

The experiment concerns the target T1, PIP4K2C (Homo sapiens, UniProt Q8TBX8).
T1 sequence (Q8TBX8 1-421): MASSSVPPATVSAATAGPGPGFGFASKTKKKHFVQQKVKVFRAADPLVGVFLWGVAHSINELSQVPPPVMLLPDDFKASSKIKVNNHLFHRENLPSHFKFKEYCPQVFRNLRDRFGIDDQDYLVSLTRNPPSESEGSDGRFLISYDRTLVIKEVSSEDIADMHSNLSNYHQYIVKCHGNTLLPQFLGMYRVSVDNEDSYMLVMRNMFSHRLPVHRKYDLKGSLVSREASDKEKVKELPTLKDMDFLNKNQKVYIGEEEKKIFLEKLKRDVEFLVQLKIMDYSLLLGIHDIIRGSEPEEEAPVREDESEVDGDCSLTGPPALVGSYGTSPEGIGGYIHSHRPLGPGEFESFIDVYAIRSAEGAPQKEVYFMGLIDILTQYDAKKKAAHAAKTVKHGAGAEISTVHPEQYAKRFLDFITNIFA
Briefly: HiBiT PIP4K2C degradation assay in MOLT-4 cells (endogenous PIP4K2C C-terminally tagged with HiBiT). It counts as cell-based. Particulars: 6 hours of incubation time, rather than 24 hours; MOLT-4, top concentration 10 micromolar; read-out: HiBIT-degradation MOLT4 PIP4k2C DC50 (6 hours, marked *). Details: untagged in primary human PBMCs and monocyte-derived dendritic cells. A digest of the protocol: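 Endogenous PIP4K2C was C-terminally HiBiT-tagged by CRISPR-Cas9 in MOLT-4 cells, which were treated with a 10-point, 3-fold dilution series from 10 micromolar in duplicate for 24 or 6 hours at 37 C. Remaining protein was read by HiBiT lytic luminescence, and DC50 came from a Hill fit.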
(In general: The HiBiT peptide binds its large partner to form an active luciferase.)
As for `O=C1CCC(Nc2ccc(N3CCN([C@H]4CC[C@H](C(=O)N[C@H]5CC[C@H](Nc6ncc(F)c(-c7cccc(N8CCCCC8)c7)n6)CC5)CC4)CC3)c(F)c2)C(=O)N1` (stereo partly drawn) [Compound 541, trans-4-(4-(4-((2,6-dioxopiperidin-3-yl)amino)-2-fluorophenyl)piperazin-1-yl)-N-(trans-4-((5-fluoro-4-(3-(piperidin-1-yl)phenyl)pyrimidin-2-yl)amino)cyclohexyl)cyclohexane-1-carboxamide], the DC50 is < 500 nM. With `O=C1CC[C@H](Nc2ccc(N3CCC(N4CCC(C(=O)N[C@H]5CC[C@H](Nc6ncc(F)c(-c7cccc(N8CCCOC8=O)c7)n6)CC5)CC4)CC3)c(F)c2)C(=O)N1` [Compound 542, 1′-(4-(((S)-2,6-dioxopiperidin-3-yl)amino)-2-fluorophenyl)-N-((trans)-4-((5-fluoro-4-(3-(2-oxo-1,3-oxazinan-3-yl)phenyl)pyrimidin-2-yl)amino)cyclohexyl)-[1,4′-bipiperidine]-4-carboxamide] the figure was < 500 nM; with `O=C1CC[C@@H](Nc2ccc(N3CCC(N4CCC(C(=O)N[C@H]5CC[C@H](Nc6ncc(F)c(-c7cccc(N8CCCOC8=O)c7)n6)CC5)CC4)CC3)c(F)c2)C(=O)N1` [Compound 543, 1′-(4-(((R)-2,6-dioxopiperidin-3-yl)amino)-2-fluorophenyl)-N-((trans)-4-((5-fluoro-4-(3-(2-oxo-1,3-oxazinan-3-yl)phenyl)pyrimidin-2-yl)amino)cyclohexyl)-[1,4′-bipiperidine]-4-carboxamide], < 500 nM. For the compound `O=C1CC[C@@H](Nc2ccc(N3CCN([C@H]4CC[C@H](C(=O)N[C@H]5CC[C@H](Nc6ncc(F)c(-c7cccc(-c8ccc[nH]c8=O)c7)n6)CC5)CC4)CC3)c(F)c2)C(=O)N1` [Compound 544, trans-4-(4-(4-(((R)-2,6-dioxopiperidin-3-yl)amino)-2-fluorophenyl)piperazin-1-yl)-N-((trans)-4-((5-fluoro-4-(3-(2-oxo-1,2-dihydropyridin-3-yl)phenyl)pyrimidin-2-yl)amino)cyclohexyl)cyclohexane-1-carboxamide], the DC50 is < 500 nM.

With `O=C1CCC(Nc2ccc(C3CCN([C@H]4CC[C@H](NC(=O)[C@H]5CC[C@H](Nc6ncc(F)c(-c7cccc(N8CCOCC8=O)n7)n6)CC5)CC4)CC3)c(F)c2)C(=O)N1` (stereo partly drawn) [Compound 545, trans-N-(trans-4-(4-(4-((2,6-dioxopiperidin-3-yl)amino)-2-fluorophenyl)piperidin-1-yl)cyclohexyl)-4-((5-fluoro-4-(6-(3-oxomorpholino)pyridin-2-yl)pyrimidin-2-yl)amino)cyclohexane-1-carboxamide], the DC50 is < 500 nM. With `O=C1CCC(Nc2ccc(C3CCN([C@H]4CC[C@H](NC(=O)[C@H]5CC[C@H](Nc6ncc(F)c(-c7cccc(N8CCCCC8=O)n7)n6)CC5)CC4)CC3)c(F)c2)C(=O)N1` (stereo partly drawn) [Compound 546, trans-N-(trans-4-(4-(4-((2,6-dioxopiperidin-3-yl)amino)-2-fluorophenyl)piperidin-1-yl)cyclohexyl)-4-((5-fluoro-4-(6-(2-oxopiperidin-1-yl)pyridin-2-yl)pyrimidin-2-yl)amino)cyclohexane-1-carboxamide] the figure was < 500 nM; with `O=C1CCC(Nc2ccc(C3CCN([C@H]4CC[C@H](NC(=O)[C@H]5CC[C@H](Nc6ncc(F)c(-c7cccc(N8CCOCC8=O)c7)n6)CC5)CC4)CC3)c(F)c2)C(=O)N1` (stereo partly drawn) [Compound 547, trans-N-(trans-4-(4-(4-((2,6-dioxopiperidin-3-yl)amino)-2-fluorophenyl)piperidin-1-yl)cyclohexyl)-4-((5-fluoro-4-(3-(3-oxomorpholino)phenyl)pyrimidin-2-yl)amino)cyclohexane-1-carboxamide], < 500 nM. In the case of `O=C1CCC(Nc2ccc(C3CCN([C@H]4CC[C@H](NC(=O)[C@H]5CC[C@H](Nc6ncc(F)c(-c7ccnc(C8(O)CCC8)c7)n6)CC5)CC4)CC3)c(F)c2)C(=O)N1` (stereo partly drawn) [Compound 548, trans-N-(trans-4-(4-(4-((2,6-dioxopiperidin-3-yl)amino)-2-fluorophenyl)piperidin-1-yl)cyclohexyl)-4-((5-fluoro-4-(2-(1-hydroxycyclobutyl)pyridin-4-yl)pyrimidin-2-yl)amino)cyclohexane-1-carboxamide], the DC50 was < 500 nM.

Turning to `O=C1CCC(Nc2ccc(C3CCN([C@H]4CC[C@H](NC(=O)[C@H]5CC[C@H](Nc6ncc(F)c(-c7ccnc(N8CCCCC8=O)c7)n6)CC5)CC4)CC3)c(F)c2)C(=O)N1` (stereo partly drawn) [Compound 549, trans-N-(trans-4-(4-(4-((2,6-dioxopiperidin-3-yl)amino)-2-fluorophenyl)piperidin-1-yl)cyclohexyl)-4-((5-fluoro-4-(2-(2-oxopiperidin-1-yl)pyridin-4-yl)pyrimidin-2-yl)amino)cyclohexane-1-carboxamide], the DC50 is < 500 nM. As for `O=C1CCC(Nc2ccc(C3CCN([C@H]4CC[C@H](NC(=O)[C@H]5CC[C@H](Nc6ncc(F)c(-c7ccnc(N8CCCOC8=O)c7)n6)CC5)CC4)CC3)c(F)c2)C(=O)N1` (stereo partly drawn) [Compound 550, trans-N-((trans)-4-(4-(4-((2,6-dioxopiperidin-3-yl)amino)-2-fluorophenyl)piperidin-1-yl)cyclohexyl)-4-((5-fluoro-4-(2-(2-oxo-1,3-oxazinan-3-yl)pyridin-4-yl)pyrimidin-2-yl)amino)cyclohexane-1-carboxamide], the DC50 was < 500 nM. As to `Cc1ccc(=O)n(-c2cccc(-c3nc(N[C@H]4CC[C@H](C(=O)N[C@H]5CC[C@H](N6CCC(c7ccc(NC8CCC(=O)NC8=O)cc7F)CC6)CC5)CC4)ncc3F)c2)c1` (stereo partly drawn) [Compound 551, trans-N-(trans-4-(4-(4-((2,6-dioxopiperidin-3-yl)amino)-2-fluorophenyl)piperidin-1-yl)cyclohexyl)-4-((5-fluoro-4-(3-(5-methyl-2-oxopyridin-1 (2H)-yl)phenyl)pyrimidin-2-yl)amino)cyclohexane-1-carboxamide], the DC50 is < 500 nM. Consider `O=C1CCC(Nc2ccc(C3CCN(CC4CCN(C(=O)[C@H]5CC[C@H](Nc6ncc(F)c(-c7cccc(N8CCOCC8=O)c7)n6)CC5)CC4)CC3)c(F)c2)C(=O)N1` (stereo partly drawn) [Compound 552, trans-3-((3-fluoro-4-(1-((1-(4-((5-fluoro-4-(3-(3-oxomorpholino)phenyl)pyrimidin-2-yl)amino)cyclohexane-1-carbonyl)piperidin-4-yl)methyl)piperidin-4-yl)phenyl)amino)piperidine-2,6-dione], for which the DC50 is < 500 nM. For `O=C1CCC(Nc2ccc(N3CCN(CC4CCN(C(=O)[C@H]5CC[C@H](Nc6ncc(F)c(-c7cccc(N8CCOCC8=O)c7)n6)CC5)CC4)CC3)c(F)c2)C(=O)N1` (stereo partly drawn) [Compound 553, trans-3-((3-fluoro-4-(4-((1-(4-((5-fluoro-4-(3-(3-oxomorpholino)phenyl)pyrimidin-2-yl)amino)cyclohexane-1-carbonyl)piperidin-4-yl)methyl)piperazin-1-yl)phenyl)amino)piperidine-2,6-dione], the DC50 is < 500 nM. With `O=C1CCC(Nc2ccc(C3CCN(CC4CCN(C(=O)[C@H]5CC[C@H](Nc6ncc(F)c(-c7cccc(C8CC8)c7)n6)CC5)CC4)CC3)c(F)c2)C(=O)N1` (stereo partly drawn) [Compound 554, trans-3-((4-(1-((1-(4-((4-(3-cyclopropylphenyl)-5-fluoropyrimidin-2-yl)amino)cyclohexane-1-carbonyl)piperidin-4-yl)methyl)piperidin-4-yl)-3-fluorophenyl)amino)piperidine-2,6-dione] the figure was < 500 nM; with `O=C1CCC(Nc2ccc(N3CCN(CC4CCN(C(=O)[C@H]5CC[C@H](Nc6ncc(F)c(-c7cccc(C8CC8)c7)n6)CC5)CC4)CC3)c(F)c2)C(=O)N1` (stereo partly drawn) [Compound 555, trans-3-[4-[4-[[1-[4-[[4-(3-cyclopropylphenyl)-5-fluoro-pyrimidin-2-yl]amino]cyclohexanecarbonyl]-4-piperidyl]methyl]piperazin-1-yl]-3-fluoro-anilino]piperidine-2,6-dione], < 500 nM.

As to `O=C1CCC(Nc2ccc(C3CCN([C@H]4CC[C@H](C(=O)N[C@H]5CC[C@H](Nc6ncc(F)c(-c7cccc(N8CCCCC8)c7)n6)CC5)CC4)CC3)c(F)c2)C(=O)N1` (stereo partly drawn) [Compound 556, trans-(1r,4R)-4-(4-(4-((2,6-dioxopiperidin-3-yl)amino)-2-fluorophenyl)piperidin-1-yl)-N-((1r,4R)-4-((5-fluoro-4-(3-(piperidin-1-yl)phenyl)pyrimidin-2-yl)amino)cyclohexyl)cyclohexane-1-carboxamide], the DC50 was < 500 nM. Regarding `O=C1CCC(Nc2ccc(N3CCN([C@H]4CC[C@H](NC(=O)[C@H]5CC[C@H](Nc6ncc(F)c(-c7cccc(C8CC8)c7)n6)CC5)CC4)CC3)c(F)c2)C(=O)N1` (stereo partly drawn) [Compound 557, trans-(1r,4R)-4-((4-(3-cyclopropylphenyl)-5-fluoropyrimidin-2-yl)amino)-N-((1r,4R)-4-(4-(4-((2,6-dioxopiperidin-3-yl)amino)-2-fluorophenyl)piperazin-1-yl)cyclohexyl)cyclohexane-1-carboxamide], the DC50 is < 500 nM.

Broadly, the DC50 is the concentration giving 50% degradation.
